Data on four compounds can be found in patent US7572765B2, “Conformationally constrained parathyroid hormone (PTH) analogs” (The General Hospital Corporation, priority 2001, dated 2009).

Square brackets hold non-standard residues; d marks the D form. Ends that are not written are not given here. Peptide text beside a SMILES is read from it. hArg = N=C(N)NCCCC[C@H](N)C(=O)O; Nle = CCCC[C@H](N)C(=O)O; Aib = CC(C)(N)C(=O)O

Assay [1] deals with T1, PTH-1 receptor endogenously expressed in SaOS-2 cells (Homo sapiens, UniProt Q03431).
T1 construct: endogenously expressed relatively low levels of the PTH-1 receptor; endogenous in cells; host or cells: SaOS-2 (SaOS-2-B10) human osteosarcoma cells
T1 sequence (Q03431 27-593): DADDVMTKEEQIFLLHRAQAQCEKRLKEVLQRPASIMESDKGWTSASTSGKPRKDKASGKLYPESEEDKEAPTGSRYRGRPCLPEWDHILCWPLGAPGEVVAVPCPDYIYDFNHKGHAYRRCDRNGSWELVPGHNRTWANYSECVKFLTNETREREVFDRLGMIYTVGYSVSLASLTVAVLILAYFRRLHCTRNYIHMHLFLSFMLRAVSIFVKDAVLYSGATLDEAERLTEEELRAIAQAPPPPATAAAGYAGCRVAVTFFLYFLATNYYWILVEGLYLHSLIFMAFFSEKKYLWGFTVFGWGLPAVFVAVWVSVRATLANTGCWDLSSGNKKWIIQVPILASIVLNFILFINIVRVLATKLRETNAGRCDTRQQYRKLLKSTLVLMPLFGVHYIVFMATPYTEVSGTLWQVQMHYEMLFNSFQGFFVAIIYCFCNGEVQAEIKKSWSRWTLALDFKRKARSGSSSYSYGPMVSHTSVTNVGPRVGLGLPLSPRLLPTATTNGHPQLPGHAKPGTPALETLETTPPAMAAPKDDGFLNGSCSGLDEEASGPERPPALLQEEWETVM
Kind of assay: cAMP stimulation in SaOS-2 cells. Format: cell-based. As to conditions: for EMAX(obs.): cAMP, basal 6.4 ± 0.8. The procedure: (§1) Cell Culture. The cell line HKRK-B28 (Takasu, H., et al., J. Bone Miner. Res. 14:11-20 (1999)) was derived from the porcine kidney cell line, LLC-PK1 by stable transfection with plasmid DNA encoding the human P1R and expresses ˜280,000 receptors per cell. These cells, as well as COS-7 cells and SaOS-2-B10 cells, were cultured at […] in T-75 flasks ([…]) in Dulbecco's modified Eagle's medium (DMEM) supplemented with fetal bovine serum (10%), penicillin G (20 units/ml), streptomycin sulfate (20 μg/ml) and amphotericin B (0.05 μg/ml) in a humidified atmosphere containing 5% CO2. Stock solutions of EGTA/trypsin and antibiotics were from GIBCO; fetal bovine serum was from Hyclone Laboratories (Logan, Utah). COS-7 cells sub-cultured in 24-well plates were transfected with plasmid DNA (200 ng per well) encoding the wild-type human P1R or truncated human P1R deleted for residues (24-181) (Shimizu, M., et al., J. Biol. Chem. 275:21836-21843 (2000)) that was purified by cesium chloride/ethidium bromide density gradient centrifugation, and FuGENE 6 transfection reagent (Roche Indianapolis Ind.) according to the manufacturer's recommended procedure. All cells, in 24-well plates, were treated with fresh media and shifted to 33° C. for 12 to 24 h prior to assay.
(§2) cAMP Stimulation. Stimulation of cells with peptide analogs was performed in 24-well plates. Cells were rinsed with 0.5 mL of binding buffer (50 mM Tris-HCI, […], 5 mM KCl, 2 mM CaCl2, 5% heat-inactivated horse serum, 0.5% fetal bovine serum, adjusted to pH 7.5 with HCl) and treated with 200 μL of cAMP assay buffer (Delbecco's modified Eagle's medium containing 2 mM 3-isobutyl-1-methylxanthine, 1 mg/mL bovine serum albumin, 35 mM Hepes-NaOH, pH 7.4) and 100 μL of binding buffer containing varying amounts of peptide analog (final volume=300 μL). The medium was removed after incubation for 30 to 60 minutes at room temperature, and the cells were frozen on dry ice, lysed with 0.5 mL 50 mM HCl, and refrozen ([…]). The cAMP content of the diluted lysate was determined by radioimmunoassay. The EC50 response values were calculated using nonlinear regression (see below).
(§3) Data Calculation. Calculations were performed using Microsoft® Excel. Nonlinear regression analyses of binding and cAMP dose-response data were performed using the four-parameter equation: yp=Min+[(Max−Min)/(1+(IC50/x)^slope)]. The Excel Solver function was utilized for parameter optimization, as described previously (Carter, P. H., et al., Endocrinology 140: 4972-4981 (1999); Bowen, W. P., and Jerman, J. C., Trends in Pharmacol. Sci. 16: 413-417 (1995)). Differences between paired data sets were statistically evaluated using a one-tailed Student's t-test, assuming unequal variances for the two sets.
The number of PTH-1 receptors expressed on the surface of the PTH target cells in bone or kidney is uncertain, but it is likely to be considerably lower than that found in HKRK-B28 cells. Therefore, several of the Aib-mounted PTH analogs were evaluated using SaOS-2 cells.

Assay [2] concerns the target T2, human P1R (Homo sapiens, UniProt Q03431).
T2 construct: expressed in transfected cells; host or cells: HKRK-B28 (porcine kidney LLC-PK1, stably transfected)
T2 sequence (Q03431 27-593): T1 sequence (Q03431 27-593)
Nature of the assay: cAMP stimulation in HKRK-B28 cells. Format: cell-based. Particulars: basal 4.0 ± 0.1 pmole/well not subtracted. The procedure:
as §1, §2, §3

The target of assay [3] is T2, human P1R. Kind of assay: Competition binding in HKRK-B28 cells. Particulars: HKRK-B28 cells. The procedure: as §1
(§4) Competition Binding. Binding reactions were performed with HKRK-B28 cells or in COS-7 cells in 24-well plates. The cells were rinsed with 0.5 mL of binding buffer, and then treated successively with 100 μL binding buffer, 100 μL of binding buffer containing various amounts of unlabeled competitor ligand, and 100 μL of binding buffer containing ca. 100,000 cpm of ^125I-[M]PTH(1-21) or ^125I-[Aib^1,3,M]PTH(1-21)} (ca. 26 fmol; final volume=300 μL). Incubations were 4 to 6 h at 4° C., at which time near equilibrium conditions were attained. Cells were then placed on ice, the binding medium was removed, and the monolayer was rinsed three times with 0.5 mL of cold binding buffer. The cells were subsequently lysed with 0.5 mL […] and counted for radioactivity. For each tracer and in each experiment, the non-specific binding was determined as the radioactivity that bound in the presence of the same unlabeled peptide at a concentration of 1 μM, and was ˜1% of total radioactivity added for each tracer. The maximum specific binding (B0) was the total radioactivity bound in the absence of competing ligand, corrected for nonspecific binding, and for each tracer, ranged from 8% to 20% of the total radioactivity added. Nonlinear regression was used to calculate binding IC50 values (see below). Scatchard transformations of homologous competition binding data derived from studies with 26 fmol of ^125I-[Aib^1,3,M]PTH(1-21) were employed for estimations of apparent equilibrium dissociation constant (kDapps) and total number of ligand binding sites (Bmax), assuming a single class of binding sites and equal affinities of the iodinated and non iodinated ligand.
as §3
The P1R-binding properties of these analogs were assayed in competition studies performed in […]. In previous studies, PTH(1-14) binding could not be detected using ^125I-PTH(1-34) and related N-terminally intact and relatively unmodified radioligands (Luck, M. D., et al., Molecular Endocrinology 13:670-680 (1999)). […]

The target of assay [4] is T2, human P1R. As to conditions: HKRK-B28 cells; previously shown (Shimizu et al., Endocrinology 2001); read-out: cAMP EC50; cited from earlier work.
Assay [5] concerns the target T3, P1R-delNt, truncated human P1R deleted for residues (24-181) (Homo sapiens, UniProt Q03431).
T3 construct: expressed in transfected cells; host or cells: COS-7 (transient, FuGENE 6)
T3 sequence (Q03431 with tags, fused parts or gaps limits assumed): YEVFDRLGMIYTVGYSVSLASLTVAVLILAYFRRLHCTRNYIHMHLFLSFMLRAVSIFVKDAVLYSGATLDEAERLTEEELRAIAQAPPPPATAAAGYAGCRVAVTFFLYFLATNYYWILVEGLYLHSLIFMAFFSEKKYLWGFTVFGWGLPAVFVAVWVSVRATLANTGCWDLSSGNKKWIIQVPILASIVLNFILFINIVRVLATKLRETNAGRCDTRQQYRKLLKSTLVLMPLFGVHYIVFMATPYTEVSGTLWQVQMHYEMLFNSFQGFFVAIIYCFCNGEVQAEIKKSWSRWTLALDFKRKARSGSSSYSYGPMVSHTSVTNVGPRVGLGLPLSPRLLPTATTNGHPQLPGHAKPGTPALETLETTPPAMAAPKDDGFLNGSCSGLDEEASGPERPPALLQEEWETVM
Nature of the assay: cAMP stimulation in COS-7 cells expressing hP1R-delNt. Format: cell-based. As to conditions: hP1R-delNT, basal 9.5 ± 1.3, asterisk = plateau not attained. The procedure: as §1, §2, §3
The possibility that the activity-enhancing effects of the Aib substitutions at positions 1 and 3 were mediated through the juxtamembrane (J) region of the receptor was investigated in COS-7 cells transiently transfected with P1R-delNt. P1R-delNt was a truncated P1R that lacked most of the amino-terminal extracellular domain.

In assay [6] the target is T3, P1R-delNt, truncated human P1R deleted for residues (24-181). Nature of the assay: Competition binding in COS-7 cells expressing hP1R-delNt. Particulars: COS-7 cells.
Assay [7] deals with T4, wild-type human P1R (hP1R-WT) (Homo sapiens, UniProt Q03431).
T4 construct: expressed in transfected cells; host or cells: COS-7 (transient, FuGENE 6)
T4 sequence (Q03431 27-593): T1 sequence (Q03431 27-593)
Nature of the assay: Competition binding in COS-7 cells expressing hP1R-WT. Particulars: P1R-WT; Scatchard transformation of homologous competition binding; read-out: apparent equilibrium dissociation constant (KDapp). The procedure: as §1, §4
Data Calculation. Calculations were performed using Microsoft® Excel. Nonlinear regression analyses of binding and cAMP dose-response data were performed using the four-parameter equation: yp=Min+[(Max−Min)/(1+(IC50/x)^slope)]. […] Differences between paired data sets were statistically evaluated using a one-tailed Student's t-test, assuming unequal variances for the two sets. […]

Assay [8] deals with T4, wild-type human P1R (hP1R-WT). Nature of the assay: cAMP stimulation in COS-7 cells expressing hP1R-WT. Format: cell-based. As to conditions: hP1R-WT, basal 10.3 ± 1.1, asterisk = plateau not attained. The procedure: as §1, §2, §3

On to `CC[C@H](C)[C@H](NC(=O)[C@H](CCC(=O)O)NC(=O)[C@H](C)NC(=O)[C@@H](NC(=O)C(C)(C)N)C(C)C)C(=O)N[C@@H](CCC(N)=O)C(=O)N[C@@H](CC(C)C)C(=O)N[C@@H](CCSC)C(=O)N[C@@H](Cc1c[nH]cn1)C(=O)N[C@@H](CCC(N)=O)C(=O)N[C@@H](CCCCNC(=N)N)C(=O)N[C@@H](C)C(=O)N[C@@H](CCCCN)C(=O)N[C@@H](Cc1c[nH]c2ccccc12)C(N)=O` [Aib-1, AibValAlaGluIleGlnLeuMetHisGlnHarAlaLysTrp] (H-[Aib]VAEIQLMHQ[hArg]AKW-NH2), for which, in assay [1], the “fold more potent in stimulating cAMP formation than [M]PTH(1-14)” value came out at 15 fold and the “EMAX(obs.)” value came out at 340 ± 30 pmole/well. Moreover, the “cAMP EMax(obs.)” value on human P1R [2] was 273 ± 6 pmole/well. Moreover, the “fold improvement of apparent binding affinity relative to [M]PTH(1-14)” value on human P1R [3] is reported as “approximately 10 fold”.

In the case of `CC[C@H](C)[C@H](NC(=O)[C@H](CCC(=O)O)NC(=O)C(C)(C)NC(=O)[C@@H](NC(=O)[C@H](C)N)C(C)C)C(=O)N[C@@H](CCC(N)=O)C(=O)N[C@@H](CC(C)C)C(=O)N[C@@H](CCSC)C(=O)N[C@@H](Cc1c[nH]cn1)C(=O)N[C@@H](CCC(N)=O)C(=O)N[C@@H](CCCCNC(=N)N)C(=O)N[C@@H](C)C(=O)N[C@@H](CCCCN)C(=O)N[C@@H](Cc1c[nH]c2ccccc12)C(N)=O` [Aib-3, AlaValAibGluIleGlnLeuMetHisGlnHarAlaLysTrp] (H-AV[Aib]EIQLMHQ[hArg]AKW-NH2), in assay [1], the “fold more potent in stimulating cAMP formation than [M]PTH(1-14)” value is 8 fold and the “EMAX(obs.)” value came to 330 ± 30 pmole/well. Further, the “cAMP EMax(obs.)” value at human P1R [2] came to 269 ± 7 pmole/well. In addition, the “fold improvement of apparent binding affinity relative to [M]PTH(1-14)” value on human P1R [3] was “approximately 10 fold”.

As for “[Ala^3,Gln^10]PTH(1-10) (SVAEIQLMHQ-NH2; UniProt P01270 32-41, looked up, variant S3A N10Q)”, the EC50 in the assay with human P1R [4] is around 800 µM.

With `CCCC[C@H](NC(=O)[C@H](CC(C)C)NC(=O)[C@H](CCC(N)=O)NC(=O)[C@@H](NC(=O)[C@H](CCC(=O)O)NC(=O)C(C)(C)NC(=O)[C@@H](NC(=O)C(C)(C)N)C(C)C)[C@@H](C)CC)C(=O)N[C@@H](Cc1c[nH]cn1)C(=O)N[C@@H](CCC(N)=O)C(=O)N[C@@H](CCCCNC(=N)N)C(=O)N[C@@H](C)C(=O)N[C@@H](CCCCN)C(=O)N[C@@H](Cc1c[nH]c2ccccc12)C(=O)N[C@@H](CC(C)C)C(=O)N[C@@H](C)C(=O)N[C@@H](CO)C(=O)N[C@H](C(=O)N[C@@H](CCCNC(=N)N)C(=O)N[C@@H](CCCNC(=N)N)C(=O)N[C@@H](Cc1ccc(O)cc1)C(N)=O)C(C)C` [[Aib^1,3,M]PTH(1-21), AibValAibGluIleGlnLeuNleHisGlnHarAlaLysTrpLeu-AlaSerValArgArtTyr] (H-[Aib]V[Aib]EIQL[Nle]HQ[hArg]AKWLASVRRY-NH2), the “cAMP EMax(obs.)” value in assay [5] came to 240 ± 20 pmole/well; in assay [8], 300 ± 30 pmole/well; at human P1R [2] it was 284 ± 76 pmole/well. In addition, the “affinity at P1R-delNt, fold weaker than at P1R-WT” value in assay [6] was below 2 fold. The “Binding IC50” value in assay [6] (hP1R-delNT, tracer 125I-[Aib^1,3,M]PTH(1-21), N.B. = no inhibition of tracer binding) was “effectively inhibited the binding”. Besides, the Kd in assay [7] amounted to 0.017 ± 0.002 µM.

What is called EC50 is the concentration giving half of the maximal effect.
